Experimental data from patent EP4471048A1, “PEPTIDE INHIBITORS OF INTERLEUKIN-23 RECEPTOR” (Zealand Pharma A/S, priority 2023, dated 2024).
Where a SMILES comes first, the peptide text is derived from it. Bridges are numbered along the chain shown (N, C = ends). [ ]: non-standard residue; d: D form. The star is where a group is joined. NH(4-(3-pyridyl)butyl) = c1cncc(CCCCN*)c1; 2Nal = N[C@@H](Cc1ccc2ccccc2c1)C(=O)O; AEF = NCCOc1ccc(C[C@H](N)C(=O)O)cc1; 3Pal = N[C@@H](Cc1cccnc1)C(=O)O; Aad = N[C@@H](CCCC(=O)O)C(=O)O; αMeL = CC(C)C[C@](C)(N)C(=O)O; dOrn = NCCC[C@@H](N)C(=O)O; Dab = NCC[C@H](N)C(=O)O; βAla = NCCC(=O)O

Tests used:
[1] = Peptide stability in simulated intestinal fluid (SIF); assay type: in vitro ADME; settings: 10 µM, 37 °C, porcine pancreatin
Method: (§1) SGF was prepared by dissolving sodium chloride (0.2 g) in 50 mL of water. A volume of 0.7 mL of 10 M HCl was added to adjust the pH of the solution to 1.2 and the volume made up to 100 mL with water. […] SIF was prepared by dissolving monobasic potassium phosphate (0.68 g) in 50 mL of water and adjusting the pH to 6.8 with 1 M NaOH. The volume was subsequently made up to 100 mL with water. 200 mg porcine pancreatin (P1625, Sigma Aldrich) was gently dissolved into 20 mL preheated (37 °C) solution (10 g/L) immediately prior to the incubation.
(§2) The incubation was performed at 37 °C with gentle shaking. […] After the last timepoint, the sampling plate was mixed for 10 min on a shaking table and centrifuged 10 min at 2200 g. 70 µL resulting supernatant was diluted with 150 µL water, mixed and centrifugated before analysis by liquid chromatography high resolution mass spectrometry. […] Percent remaining at each timepoint was calculated relative to timepoint zero based on absolute peak areas.
Compounds with a SIF stability (after 4 h) above 70% are considered highly SIF stable.

[2] = Peptide stability in simulated gastric fluid (SGF); assay type: in vitro ADME; settings: 10 µM, 37 °C, porcine pepsin
Method: as §1, §2
Compounds with a SGF stability (after 4 h) above 70% are considered highly SGF stable. […] Table 3-4: SGF data

human IL-23R = molecular target: T1, human IL-23R (Homo sapiens, UniProt Q5VWK5); assay: biochemical; settings: for Emax: read-out: % displacement (hIL-23R NIuc)
T1 sequence (Q5VWK5 22-629): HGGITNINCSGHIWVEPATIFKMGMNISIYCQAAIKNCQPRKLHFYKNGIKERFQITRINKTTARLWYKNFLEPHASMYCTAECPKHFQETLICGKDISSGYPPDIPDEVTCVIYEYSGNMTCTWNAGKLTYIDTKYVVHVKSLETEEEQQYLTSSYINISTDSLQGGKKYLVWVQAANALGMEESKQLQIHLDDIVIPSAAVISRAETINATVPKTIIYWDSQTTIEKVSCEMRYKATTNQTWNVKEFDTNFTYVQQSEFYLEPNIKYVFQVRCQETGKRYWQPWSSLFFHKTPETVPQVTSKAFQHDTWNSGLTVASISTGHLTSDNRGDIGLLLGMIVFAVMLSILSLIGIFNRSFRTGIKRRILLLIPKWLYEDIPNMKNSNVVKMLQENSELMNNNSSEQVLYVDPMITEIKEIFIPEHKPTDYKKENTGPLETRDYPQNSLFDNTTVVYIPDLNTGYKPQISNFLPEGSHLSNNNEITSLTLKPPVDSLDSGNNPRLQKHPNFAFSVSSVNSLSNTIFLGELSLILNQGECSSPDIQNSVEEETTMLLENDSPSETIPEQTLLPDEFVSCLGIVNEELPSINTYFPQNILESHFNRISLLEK
Procedure, shortened: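 BRET displacement of a TAMRA-labelled reference compound from N-terminal Nanoluc-IL-23R fusion protein in membranes from stably transfected HEK293 cells. Incubation 2 h at room temperature, then Nanoluc substrate was added and the TAMRA/Nanoluc ratio read. IC50 and maximal displacement came from 4-parameter logistic fits.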

% displacement (hIL-23R NIuc) (human IL-23R) [%] | IC50 (human IL-23R) [nM] | Emax (human IL-23R) [%] | SMILES | other results
99 | 3 | – | CNC(=O)[C@H](Cc1cccnc1)NC(=O)[C@H](CCN)NC(=O)[C@@H]1CCC(=O)NCCCCC[C@@H]2NC(=O)CC[C@H](NC(=O)[C@H](CCC(N)=O)NC(=O)[C@H](Cc3c[nH]c4ccccc34)NC2=O)C(=O)N[C@@H](Cc2ccc(OCCN)cc2)C(=O)N[C@@H](Cc2ccc3ccccc3c2)C(=O)N[C@@](C)(CC(C)C)C(=O)N1 [Compound 93, [hLys](1c)(6c)^†WQE(6c)[Y(2-aminoethoxy)][2-Nal][2-Me-Leu]E(1c)[Dab][3-(3-Pyridyl)-Ala]-[NHMe]] | –
– | 420 | 95 | COc1ccc(C[C@@H]2NC(=O)[C@@H]3CCC(=O)N[C@@H](CCCCNC(=O)CC[C@@H](C(=O)N[C@@H](CCCCNC(=O)c4ccncc4)C(N)=O)NC(=O)[C@](C)(CC(C)C)NC(=O)[C@H](Cc4ccc5ccccc5c4)NC2=O)C(=O)N[C@@H]([C@@H](C)O)C(=O)N[C@@H](C(C)C)C(=O)N[C@@H](Cc2c[nH]c4ccccc24)C(=O)N[C@@H](CCC(N)=O)C(=O)N3)cc1 [Compound 53, K(1c)(6c)^†TVWQE(6c)[Y(Me)][2-Nal][2-Me-Leu]E(1c)[K(isonicotinyl)]-[NH2]] | –
– | 140 | 100 | COc1ccc(C[C@@H]2NC(=O)[C@@H]3CCC(=O)N[C@@H](CCCCNC(=O)CC[C@@H](C(=O)N[C@@H](CCCCNC(=O)CCc4ccncc4)C(N)=O)NC(=O)[C@](C)(CC(C)C)NC(=O)[C@H](Cc4ccc5ccccc5c4)NC2=O)C(=O)N[C@@H]([C@@H](C)O)C(=O)N[C@@H](C(C)C)C(=O)N[C@@H](Cc2c[nH]c4ccccc24)C(=O)N[C@@H](CCC(N)=O)C(=O)N3)cc1 [Compound 55, K(1c)(6c)^†TVWQE(6c)[Y(Me)][2-Nal][2-Me-Leu]E(1c)[K(4-pyridylpropionyl)]-[NH2]] | –
101 | 20 | – | CC(C)C[C@]1(C)NC(=O)[C@H](Cc2ccc3ccccc3c2)NC(=O)[C@H](Cc2ccc(OCCN)cc2)NC(=O)[C@@H]2CCC(=O)N[C@@H](CCCCNC(=O)CC[C@@H](C(=O)NCCCCc3cccnc3)NC1=O)C(=O)N[C@@H](CO)C(=O)N[C@@H](C(C)C)C(=O)N[C@@H](Cc1c[nH]c3ccccc13)C(=O)N[C@@H](CCC(N)=O)C(=O)N2 [Compound 30, K(1c)(6c)^†SVWQE(6c)[Y(2-aminoethoxy)][2-Nal][2-Me-Leu]E(1c)-[NH-4-(pyridin-3-yl)butanyl]] | –
98 | – | – | CC(C)[C@@H]1NC(=O)[C@H](CO)NC(=O)[C@@H]2CCCCNC(=O)CC[C@@H](C(=O)NCCCCc3cccnc3)NC(=O)CNC(=O)[C@H](Cc3ccc4ccccc4c3)NC(=O)[C@H](Cc3ccc(OCCN)cc3)NC(=O)[C@H](CCC(=O)N2)NC(=O)[C@H](CCC(N)=O)NC(=O)[C@H](Cc2c[nH]c3ccccc23)NC1=O [Compound 31, K(1c)(6c)^†SVWQE(6c)[Y(2-aminoethoxy)][2-Nal]GE(1c)-[NH-4-(pyridin-3-yl)butanyl]] (KSVWQE[AEF][2Nal]GE-{NH(4-(3-pyridyl)butyl)}; lactam 1-10, N-6) | –
– | 0.079 | 100 | CNC(=O)[C@H](Cc1cccnc1)NC(=O)[C@H](CCN)NC(=O)[C@@H]1CCC(=O)NCCCC[C@@H]2NC(=O)CC[C@H](NC(=O)[C@H](CCC(N)=O)NC(=O)[C@H](Cc3c[nH]c4ccccc34)NC(=O)CCNC2=O)C(=O)N[C@@H](Cc2c[nH]c3ccccc23)C(=O)N[C@@H](Cc2ccc3ccccc3c2)C(=O)N[C@@](C)(CC(C)C)C(=O)N1 [Compound 110, K(1c)(6c)^†[3-Aminopropanoyl]WQE(6c)W[2-Nal][2-Me-Leu]E(1c)[Dab][3-(3-Pyridyl)-Ala]-[NHMe]] (K[βAla]WQEW[2Nal][αMeL]E[Dab][3Pal]-NHMe; lactam 1-9, N-5) | –
– | 15 | 101 | CNC(=O)[C@H](Cc1cccnc1)NC(=O)[C@H](CCN)NC(=O)[C@@H]1CCC(=O)N[C@H]2CCNC(=O)CC[C@H](NC(=O)[C@H](CCC(N)=O)NC(=O)[C@H](Cc3c[nH]c4ccccc34)NC2=O)C(=O)N[C@@H](Cc2ccc(OCCN)cc2)C(=O)N[C@@H](Cc2ccc3ccccc3c2)C(=O)N[C@@](C)(CC(C)C)C(=O)N1 [Compound 103, [iso-Dab](1c)^†(6c)WQE(6c)[Y(2-aminoethoxy)][2-Nal][2-Me-Leu]E(1c)[Dab][3-(3-Pyridyl)-Ala]-[NHMe]] | –

Continued, compound first:

SMILES | % displacement (hIL-23R NIuc) (human IL-23R) [%] | IC50 (human IL-23R) [nM] | Emax (human IL-23R) [%] | other results
CC(C)C[C@@H]1NC(=O)[C@H](Cc2c[nH]c3ccccc23)NC(=O)[C@H](Cc2c[nH]c3ccccc23)NC(=O)[C@@H]2CSCC(=O)CSC[C@H](NC(=O)[C@H](CO)NC(=O)[C@@H](NC(=O)[C@@H](N)CC(=O)O)CSCC(=O)CSC[C@@H](C(=O)N[C@@H](CCCNC(=N)N)C(N)=O)NC1=O)C(=O)N[C@@H](Cc1c[nH]c3ccccc13)C(=O)N[C@@H](CCC(N)=O)C(=O)N2 (single isomer, unassigned) [I3 (isomer 3), H-DC(1a)SC(2a)WQC(2a)WWLC(1a)R-[NH2], reference compound] | – | – | – | SIF (% remaining 1 h) ([1]; pH 6.8, 1 h): 0%; SIF (% remaining 4 h) ([1]; pH 6.8, 4 h): 0%; SGF (% remaining 1 h) ([2]; pH 1.2, 1 h): 5%; SGF (% remaining 4 h) ([2]; pH 1.2, 4 h): 0%
CC[C@H](C)[C@@H]1NC(=O)[C@@H]2CCCCNC(=O)CC[C@@H](C(=O)NCC(=O)N[C@H](Cc3cccnc3)C(N)=O)NC(=O)[C@](C)(C(C)C)NC(=O)[C@H](Cc3ccc4ccccc4c3)NC(=O)[C@@H](Cc3ccccc3)NC(=O)[C@H](CCC(=O)N2)NC(=O)[C@H](CCC(N)=O)NC(=O)[C@H](Cc2c[nH]c3ccccc23)NC(=O)[C@H](C(C)C)NC1=O [Compound 22, K(1c)(6c)^†IVWQE(6c)[{d}F][2-Nal][2-Me-Val]E(1c)G[{d}3-(3-Pyridyl)-Ala]-[NH2]] | – | 980 | 86 | –
CC[C@H](C)[C@@H]1NC(=O)[C@@H]2CCCCNC(=O)CC[C@@H](C(=O)N[C@@H](CCN)C(=O)N[C@@H](Cc3cccnc3)C(N)=O)NC(=O)[C@](C)(C(C)C)NC(=O)[C@H](Cc3ccc4ccccc4c3)NC(=O)[C@H](Cc3ccc(C)cc3)NC(=O)[C@H](CCC(=O)N2)NC(=O)[C@H](CCC(N)=O)NC(=O)[C@H](Cc2c[nH]c3ccccc23)NC(=O)[C@H](C(C)C)NC1=O [Compound 16, K(1c)(6c)^†IVWQE(6c)[F(4-Me)][2-Nal][2-Me-Val]E(1c)[Dab][3-(3-Pyridyl)-Ala]-[NH2]] | – | 0.099 | 101 | –
CC[C@H](C)[C@@H]1NC(=O)[C@@H]2CCCCNC(=O)CC[C@@H](C(=O)NCC(=O)N[C@H](Cc3cccnc3)C(N)=O)NC(=O)[C@](C)(C(C)C)NC(=O)[C@H](CC3CC3)NC(=O)[C@H](Cc3ccc(C)cc3)NC(=O)[C@H](CCC(=O)N2)NC(=O)[C@H](CCC(N)=O)NC(=O)[C@H](Cc2c[nH]c3ccccc23)NC(=O)[C@H](C(C)C)NC1=O [Compound 23, K(1c)(6c)^†IVWQE(6c)[F(4-Me)][Cyclopropyl-Ala][2-Me-Val]E(1c)G[{d}3-(3-Pyridyl)-Ala]-[NH2]] | 111 | 89 | – | –
CC(C)C[C@]1(C)NC(=O)[C@H](Cc2ccc3ccccc3c2)NC(=O)[C@H](Cc2ccc(OCCN)cc2)NC(=O)[C@@H]2CC(=O)N[C@H](CCCNC(=O)CCC[C@@H](C(=O)N[C@@H](CCN)C(=O)N[C@@H](Cc3cccnc3)C(N)=O)NC1=O)C(=O)N[C@@H]([C@@H](C)O)C(=O)N[C@@H](C(C)C)C(=O)N[C@@H](Cc1c[nH]c3ccccc13)C(=O)N[C@@H](CCC(N)=O)C(=O)N2 [Compound 8, [{d}Orn](1c)(6c)^†TVWQD(6c)[Y(2-aminoethoxy)][2-Nal][2-Me-Leu][hGlu](1c)[Dab][3-(3-Pyridyl)-Ala]-[NH2]] ([dOrn]TVWQD[AEF][2Nal][αMeL][Aad][Dab][3Pal]-NH2; lactam 1-10, N-6) | – | 0.52 | – | –
CC(C)C[C@]1(C)NC(=O)[C@H](Cc2ccc3ccccc3c2)NC(=O)[C@H](Cc2ccc(OCCN)cc2)NC(=O)[C@@H]2CCC(=O)N[C@H](CCCCCNC(=O)CC[C@@H](C(=O)N[C@@H](CCN)C(=O)N[C@@H](Cc3cccnc3)C(N)=O)NC1=O)C(=O)N[C@@H]([C@@H](C)O)C(=O)N[C@@H](C(C)C)C(=O)N[C@@H](Cc1c[nH]c3ccccc13)C(=O)N[C@@H](CCC(N)=O)C(=O)N2 [Compound 5, [{d}hLys](1c)(6c)^†TVWQE(6c)[Y(2-aminoethoxy)][2-Nal][2-Me-Leu]E(1c)[Dab][3-(3-Pyridyl)-Ala]-[NH2]] | – | 0.037 | 98 | –
